Data as given in US9861592B2, “Methods and compositions for treating neurodegenerative diseases” (Golden Biotechnology Corporation, priority 2012, dated 2018).
In brackets after ≈: the same amount, converted by molar mass.

System: PC12 cells
Assay: CCK-8 cell viability assay, titration of Compound 1 in NGF-induced PC12 cells
Assay type: cell-based
Settings: Rattus norvegicus, PC-12, 48 h
Procedure: Rat pheochromocytoma PC12 cells, purchased from Bioresource Collection and Research Center (BCRC), were cultured in RPMI1640 medium (Gibco, MD) containing 10% fetal calf serum, 5% horse donor serum, 100 μg/ml streptomycin, 100 units/ml penicillin, 2 mM L-glutamine, and maintained in humidified incubator at 37° C. with 5% CO2. Cells were transferred twice a week. Experiments were carried out in 96-well plates coated with poly-D-lysine (1 mg/mL) to assist cell adhesion. PC12 cells were grown on medium with mouse submaxillary-gland nerve growth factor (NGF 2.5S, 100 ng/ml; Invitrogen, Carlsbad, Calif.) for 48 h to induce differentiation into neuron-like cells before all experiments conducted in this study.
To optimize the exemplary Compound 1 concentration for NGF-induced PC12 neural model, titration experiments were performed to determine the IC50 values of Compound 1 in PC12. PC12 Cells (1×10^4 cells) were incubated with various concentrations of Compound 1 (0.001, 0.01, 0.1, 1, 10, 100 μg/ml in a 10% serum-supplemented medium; 0.3, 1, 3, 10, 30, 100 μg/ml in serum-free medium) for 48 h.
The viability of cells was measured using the Cell Counting Kit-8 (CCK-8, Enzo, Life Sciences). A highly water-soluble tetrazolium salt, WST-8, is reduced by dehydrogenases in cells to give a yellow-colored product (formazan), which is soluble in the culture medium. The amount of the fomazan dye generated by the activity of dehydrogenases in cells is directly proportional to the number of living cells. After treatments, the CCK-8 solution was added to each well of plates and incubates the plate for 4 h in the incubator. The concentration of the formazan product was determined spectrophotometrically at an absorbance wavelength 450 nm and cell viability was expressed as a percentage of the corresponding control.

Work on `COC1=C(OC)C(O)C(C/C=C(\C)CC/C=C(\C)CCC=C(C)C)C(C)C1=O` (stereo not drawn) [Compound 1, 4-hydroxy-2,3-dimethoxy-6-methyl-5-(3,7,11-trimethyldodeca-2,6,10-trienyl)cyclohex-2-enone] yielded an IC50 (PC12, 10% serum supplemented media, unit as printed in b23) of 58 µg/mL (≈ 148 µM), an IC50 (PC12, 10% serum supplemented media, unit as printed in b151) of 58 µg/mL (≈ 148 µM) and an IC50 (PC12, serum-free media) of 13.4 µg/mL (≈ 34.3 µM).
